Test system: Bacillus subtilis
Test: Colorimetric detection of water toxicity with Bacillus subtilis cultured in CM-Fe medium and potassium ferricyanide (Prussian blue, absorbance at 690 nm, 96-well plate)
Assay type: cell-based
Settings: bacterial suspension OD600=2, 8 mM potassium ferricyanide, 20 min reaction; for detection limit (toxicant concentration discerned with naked eyes by color difference): sample photographs
Protocol: The inhibition rate is specifically calculated as: Inhibition %=(1−Abstox/Abscon)×100(1); • wherein, Abstox represents the peak value of the ultraviolet absorption spectrum of the sample to be detected at 690 nm, and Abscon represents the peak value of the ultraviolet absorption spectrum of the standard sample at 690 nm; • the IC50 value is calculated by: taking a concentration of toxicant in the water to be detected as the abscissa and the inhibition rate as the ordinate, drawing a curve, and fitting to obtain the IC50 value.
20 g of glucose, 15 g of peptone, 5 g of NaCl, 0.5 g of yeast extract and 0.001-10 g of ferric citrate were weighed, mixed and ground into powder by a dry grinding method in a ball mill to obtain a new culture medium CM-Fe.
1-100 g of CM and 1-100 g of CM-Fe culture media were added into two 1 L beakers respectively, adjusted to a volume of 1 L by adding deionized water, stirred, ultrasonicated, dissolved, and aliquoted in six 500 mL triangular flasks (3 for each culture medium), which were sealed with a sterile filtration sealing film, sterilized with high-temperature and high-pressure at 121° C. (98 kPa) for 5-40 min, and cooled down for later use.
Bacillus subtilis was inoculated into sterilized CM and CM-Fe culture media respectively, and cultured in a constant temperature shaker at 50-300 rpm at 37° C. for 8-30 h. The cultured bacterial liquid was centrifuged at 3000-10000 rpm for 1-20 min, then centrifuged and washed twice with 0.1-30% NaCl solution to remove the culture medium. Finally, Bacillus subtilis was resuspended in 0.1-30% NaCl solution and placed at 0-30° C. for later use.
100 μL of two suspensions of bacteria with OD600=2, 50 μL of Cu^2+ at varying concentrations and 50 μL of 8 mM potassium ferricyanide were mixed in the wells of a 96-well plate and reacted for 20 min. […] At low Cu^2+, concentrations, the color of the toxic samples was similar to that of the non-toxic samples. […] The final concentrations of toxicants from top to bottom were 0 mg/L, 0.49 mg/L, 0.98 mg/L, 1.95 mg/L, 3.9 mg/L, 7.8 mg/L and 15.63 mg/L, respectively. […]

| SMILES | IC20 fitted from inhibition rate curve (peak at 690 nm) [µg/mL] | detection limit (toxicant concentration discerned with naked eyes by color difference) [mg/L] |
| --- | --- | --- |
| [Cu+2] [Cu^2+] | 2.4 | 3.9 |
| [Hg+2] [Hg^2+] | – | 0.49 |

Source: patent publication US20250298000A1, “PREPARATION OF CULTURE MEDIUM AND USE THEREFOR IN WATER TOXICITY CO[…]” (CHANGCHUN INSTITUTE OF APPLIED CHEMISTRY, CHINESE ACADEMY …, priority 2022, published 2025)
